Blank lines part the entries; values can stand above or below the compound they belong to.
Assays:
Test in all cases: isothermal titration calorimetry
Assay type in all cases: binding
[1] = target: T1, BT0366 (arabinan HTCS sensor), periplasmic domain (Bacteroides thetaiotaomicron, UniProt Q8AAU8); settings: 25 °C, HEPES pH 8.0; two-site fit, site 1 (stronger)
T1 construct: gene BT_0366
T1 sequence (Q8AAU8 24-810 limits assumed): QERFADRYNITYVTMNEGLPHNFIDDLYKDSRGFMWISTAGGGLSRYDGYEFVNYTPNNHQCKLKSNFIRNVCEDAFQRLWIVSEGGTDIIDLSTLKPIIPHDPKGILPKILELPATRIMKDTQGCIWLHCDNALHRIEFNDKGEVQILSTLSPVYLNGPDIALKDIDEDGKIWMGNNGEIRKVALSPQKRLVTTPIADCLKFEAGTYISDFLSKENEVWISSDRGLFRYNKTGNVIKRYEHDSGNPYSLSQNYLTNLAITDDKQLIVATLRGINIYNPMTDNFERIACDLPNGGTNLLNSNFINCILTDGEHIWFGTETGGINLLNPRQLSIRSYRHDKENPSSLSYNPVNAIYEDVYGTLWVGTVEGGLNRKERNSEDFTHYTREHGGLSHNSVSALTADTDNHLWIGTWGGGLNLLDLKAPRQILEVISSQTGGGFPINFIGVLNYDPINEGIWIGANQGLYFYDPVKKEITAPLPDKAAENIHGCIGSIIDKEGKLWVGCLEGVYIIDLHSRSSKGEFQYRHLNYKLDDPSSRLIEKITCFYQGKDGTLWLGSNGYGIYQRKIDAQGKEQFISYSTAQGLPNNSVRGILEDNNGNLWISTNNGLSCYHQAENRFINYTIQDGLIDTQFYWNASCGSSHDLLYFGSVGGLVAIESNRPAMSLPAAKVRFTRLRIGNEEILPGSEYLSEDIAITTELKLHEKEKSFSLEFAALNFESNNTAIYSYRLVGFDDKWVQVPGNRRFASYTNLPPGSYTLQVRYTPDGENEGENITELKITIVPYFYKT
Excerpt: isothermal titration calorimetry on BT0366 (arabinan HTCS sensor), periplasmic domain

[2] = target: BACOVA_02740 (β-glucan HTCS sensor), periplasmic domain (Bacteroides ovatus, UniProt A0ABU3IRK2); settings: 25 °C, HEPES pH 8.0; for Ka / (M^-1): single-site fit
BACOVA_02740 (β-glucan HTCS sensor), periplasmic domain, sequence (A0ABU3IRK2 21-759 limits assumed): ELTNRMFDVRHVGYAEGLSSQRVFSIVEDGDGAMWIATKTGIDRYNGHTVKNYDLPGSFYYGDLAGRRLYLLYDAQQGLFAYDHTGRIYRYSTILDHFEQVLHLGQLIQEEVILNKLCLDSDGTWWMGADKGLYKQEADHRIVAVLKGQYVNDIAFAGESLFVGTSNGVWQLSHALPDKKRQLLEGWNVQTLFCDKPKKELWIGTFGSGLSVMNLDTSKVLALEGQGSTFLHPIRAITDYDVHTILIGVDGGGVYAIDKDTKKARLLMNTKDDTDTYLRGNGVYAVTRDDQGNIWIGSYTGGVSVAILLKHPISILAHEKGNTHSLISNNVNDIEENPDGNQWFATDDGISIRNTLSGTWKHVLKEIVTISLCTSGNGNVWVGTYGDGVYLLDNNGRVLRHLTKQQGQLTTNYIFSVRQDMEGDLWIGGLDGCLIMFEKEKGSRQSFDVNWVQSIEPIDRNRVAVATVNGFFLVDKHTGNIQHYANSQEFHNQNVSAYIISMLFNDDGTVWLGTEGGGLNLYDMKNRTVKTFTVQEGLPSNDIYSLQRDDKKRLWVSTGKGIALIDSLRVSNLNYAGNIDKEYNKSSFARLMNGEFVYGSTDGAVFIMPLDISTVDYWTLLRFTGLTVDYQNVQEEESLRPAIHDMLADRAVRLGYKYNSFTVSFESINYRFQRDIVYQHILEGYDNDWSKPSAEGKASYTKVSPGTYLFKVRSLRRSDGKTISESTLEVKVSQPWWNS
Excerpt: isothermal titration calorimetry on BACOVA_02740 (β-glucan HTCS sensor), periplasmic domain

[3] = target: BACOVA_04394 (xylan HTCS sensor), periplasmic domain (Bacteroides ovatus, UniProt A0ABU3IPP8); settings: 25 °C, HEPES pH 8.0; for Ka: binding seen, too low to fit (TLTF); for Ka / (M^-1): single-site fit
BACOVA_04394 (xylan HTCS sensor), periplasmic domain, sequence (A0ABU3IPP8 21-805 limits assumed): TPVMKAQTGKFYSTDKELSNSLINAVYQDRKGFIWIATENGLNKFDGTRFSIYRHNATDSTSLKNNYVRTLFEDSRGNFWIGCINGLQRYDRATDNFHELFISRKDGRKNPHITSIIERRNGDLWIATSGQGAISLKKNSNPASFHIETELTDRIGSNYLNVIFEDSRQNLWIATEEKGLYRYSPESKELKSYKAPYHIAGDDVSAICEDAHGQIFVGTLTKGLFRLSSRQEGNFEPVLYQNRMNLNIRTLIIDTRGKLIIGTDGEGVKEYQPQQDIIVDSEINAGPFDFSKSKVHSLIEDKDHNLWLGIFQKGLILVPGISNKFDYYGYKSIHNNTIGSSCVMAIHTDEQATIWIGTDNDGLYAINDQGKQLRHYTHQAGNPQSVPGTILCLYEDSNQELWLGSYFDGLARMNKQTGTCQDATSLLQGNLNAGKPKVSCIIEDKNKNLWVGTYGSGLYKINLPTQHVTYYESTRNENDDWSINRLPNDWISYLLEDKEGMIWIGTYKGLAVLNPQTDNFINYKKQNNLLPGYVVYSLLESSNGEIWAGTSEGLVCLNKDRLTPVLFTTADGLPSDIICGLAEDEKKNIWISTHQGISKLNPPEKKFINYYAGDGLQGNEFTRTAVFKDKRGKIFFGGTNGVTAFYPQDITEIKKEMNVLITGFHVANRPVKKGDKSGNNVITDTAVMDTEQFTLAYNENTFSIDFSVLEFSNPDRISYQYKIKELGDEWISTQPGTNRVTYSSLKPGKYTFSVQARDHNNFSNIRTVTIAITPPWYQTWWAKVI
Excerpt: isothermal titration calorimetry on BACOVA_04394 (xylan HTCS sensor), periplasmic domain

- Ka / (M^-1) [1]: 3.5E4±0.6
Structure (SMILES): OC[C@@H]1O[C@@H](OC[C@@H]2O[C@@H](OC[C@@H]3O[C@@H](OC[C@@H]4O[C@@H](OC[C@@H]5O[C@@H](OC[C@@H]6O[C@@H](OC[C@@H]7OC(O)[C@H](O)[C@H]7O)[C@H](O)[C@H]6O)[C@H](O)[C@H]5O)[C@H](O)[C@H]4O)[C@H](O)[C@H]3O)[C@H](O)[C@H]2O)[C@H](O)[C@H]1O (stereo partly drawn) [Arabinoheptaose]

- Ka / (M^-1) [1]: 3.9E3±0.9
Structure (SMILES): OC[C@@H]1O[C@@H](OC[C@@H]2O[C@@H](OC[C@@H]3O[C@@H](OC[C@@H]4O[C@@H](OC[C@@H]5O[C@@H](OC[C@@H]6OC(O)[C@H](O)[C@H]6O)[C@H](O)[C@H]5O)[C@H](O)[C@H]4O)[C@H](O)[C@H]3O)[C@H](O)[C@H]2O)[C@H](O)[C@H]1O (stereo partly drawn) [Arabinohexaose]

Structure (SMILES): OC[C@@H]1O[C@@H](OC[C@@H]2O[C@@H](OC[C@@H]3O[C@@H](OC[C@@H]4O[C@@H](OC[C@@H]5O[C@@H](OC[C@@H]6O[C@@H](OC[C@@H]7O[C@@H](OC[C@@H]8OC(O)[C@H](O)[C@H]8O)[C@H](O)[C@H]7O)[C@H](O)[C@H]6O)[C@H](O)[C@H]5O)[C@H](O)[C@H]4O)[C@H](O)[C@H]3O)[C@H](O)[C@H]2O)[C@H](O)[C@H]1O (stereo partly drawn) [Arabinooctaose]
- Ka / (M^-1) [1]: 4.8E4±0.1

- Ka ([2]; binding seen, too low to fit (TLTF)): ∼5.0×10^2
Structure (SMILES): OC[C@H]1O[C@@H](O[C@@H]2[C@@H](O)[C@H](O[C@H]3[C@H](O)[C@@H](O)[C@H](O[C@H]4[C@H](O)[C@@H](O)[C@H](O[C@H]5[C@H](O)[C@@H](O)C(O)O[C@@H]5CO)O[C@@H]4CO)O[C@@H]3CO)O[C@H](CO)[C@H]2O)[C@H](O)[C@@H](O)[C@@H]1O (stereo partly drawn) [Glucopentaose A (β3,4,4,4)]

- Ka / (M^-1) [2]: 2.5E3±1.3
Structure (SMILES): OC[C@H]1O[C@@H](O[C@H]2[C@H](O)[C@@H](O)[C@H](O[C@H]3[C@H](O)[C@@H](O)[C@H](O[C@H]4[C@H](O)[C@@H](CO)OC(O)[C@@H]4O)O[C@@H]3CO)O[C@@H]2CO)[C@H](O)[C@@H](O)[C@@H]1O (stereo partly drawn) [Glucotetraose B (β4,4,3)]

- Ka / (M^-1) [2]: 3.2E4±0.7
Structure (SMILES): OC[C@H]1O[C@@H](O[C@H]2[C@H](O)[C@@H](O)[C@H](O[C@@H]3[C@@H](O)[C@H](O[C@H]4[C@H](O)[C@@H](O)C(O)O[C@@H]4CO)O[C@H](CO)[C@H]3O)O[C@@H]2CO)[C@H](O)[C@@H](O)[C@@H]1O (stereo partly drawn) [Glucotetraose C (β4,3,4)]

- Ka / (M^-1) [2]: 3.4E3±1.9
Structure (SMILES): OC[C@H]1O[C@@H](O[C@H]2[C@H](O)[C@@H](O)[C@H](O[C@H]3[C@H](O)[C@@H](CO)OC(O)[C@@H]3O)O[C@@H]2CO)[C@H](O)[C@@H](O)[C@@H]1O (stereo partly drawn) [Glucotriose B (β4,3)]

- Ka [3]: ∼5.0×10^2
Structure (SMILES): OC1OC[C@@H](O[C@@H]2OC[C@@H](O)[C@H](O)[C@H]2O)[C@H](O)[C@H]1O (stereo partly drawn) [Xylobiose]

- Ka [3]: ∼5.0×10^2
Structure (SMILES): OC1OC[C@@H](O[C@@H]2OC[C@@H](O[C@@H]3OC[C@@H](O[C@@H]4OC[C@@H](O[C@@H]5OC[C@@H](O[C@@H]6OC[C@@H](O)[C@H](O)[C@H]6O)[C@H](O)[C@H]5O)[C@H](O)[C@H]4O)[C@H](O)[C@H]3O)[C@H](O)[C@H]2O)[C@H](O)[C@H]1O (stereo partly drawn) [Xylohexaose]

- Ka / (M^-1) [3]: 8.8E4±2.9
Structure (SMILES): OC1OC[C@@H](O[C@@H]2OC[C@@H](O[C@@H]3OC[C@@H](O[C@@H]4OC[C@@H](O[C@@H]5OC[C@@H](O)[C@H](O)[C@H]5O)[C@H](O)[C@H]4O)[C@H](O)[C@H]3O)[C@H](O)[C@H]2O)[C@H](O)[C@H]1O (stereo partly drawn) [Xylopentaose]

- Ka / (M^-1) [3]: 6.8E5±1.2
Structure (SMILES): OC1OC[C@@H](O[C@@H]2OC[C@@H](O[C@@H]3OC[C@@H](O[C@@H]4OC[C@@H](O)[C@H](O)[C@H]4O)[C@H](O)[C@H]3O)[C@H](O)[C@H]2O)[C@H](O)[C@H]1O (stereo partly drawn) [Xylotetraose]

- Ka / (M^-1) [3]: 1.1E3±0.1
Structure (SMILES): OC1OC[C@@H](O[C@@H]2OC[C@@H](O[C@@H]3OC[C@@H](O)[C@H](O)[C@H]3O)[C@H](O)[C@H]2O)[C@H](O)[C@H]1O (stereo partly drawn) [Xylotriose]

Source: PMC3243724, “Recognition and Degradation of Plant Cell Wall Polysaccharides by Two Human Gut Symbionts” (PLoS Biology, 2011)
